Activity calls are given as the source filed them. No cut-off for these calls is given here.

These results are taken from ChEMBL document CHEMBL4138123, “Design, synthesis and biological evaluation of novel pyrazolochalcones as potential modulators of PI3K/Akt/mTOR pathway and inducers of apoptosis in breast cancer cells” (Eur J Med Chem, 2017).

In assay [1] the test system is MCF7. In words: Upregulation of BAX mRNA expression in human MCF7 cells at 2 uM after 48 hrs by qRT-PCR analysis. The format is functional, cell-based. On the technique in general: Quantitative PCR measures a nucleic acid by following its amplification.
Assay [2] deals with MCF7. In words: Inhibition of PI3K in human MCF7 cells assessed as increase in GSK-3beta phosphorylation at Ser9 at 2 uM after 24 hrs by Western blot analysis. The assay is classed as cell-based. (In general: Immunoblotting shows a protein as a band on a membrane.)
For assay [3], the system named is MCF7. In words: Downregulation of PI3K protein expression in human MCF7 cells at 2 uM after 24 hrs by Western blot analysis. The assay is classed as functional, cell-based.
In assay [4] the test system is MCF7. In words: Upregulation of PTEN mRNA expression in human MCF7 cells at 2 uM after 48 hrs by qRT-PCR analysis. The format is functional, cell-based.
Assay [5] has as its system MCF7. Put plainly: Induction of apoptosis in human MCF7 cells assessed as necrotic cells at 2 uM after 24 hrs by Annexin-V FITC/propidium iodide staining-based FACS analysis (reference value: 0.2%). The assay is classed as functional. (A flow cytometer gives signals particle by particle.)
In assay [6] the test system is MCF7. In words: Downregulation of mTOR protein expression in human MCF7 cells at 2 uM after 24 hrs by Western blot analysis. The format is functional, cell-based.
In assay [7] the test system is MCF7. Put plainly: Cell cycle arrest in human MCF7 cells assessed as accumulation at G2/M phase at 2 uM after 48 hrs by flow cytometric analysis (reference value: 8.1%). The assay is classed as functional.
Assay [8] deals with MCF7. Put plainly: Induction of intrinsic apoptosis in human MCF7 cells assessed as effect on mitochondrial membrane depolarization at 2 uM after 18 hrs by DiOC6 staining-based FACS analysis (reference value: 2%). The format is functional.
The test system of assay [9] is MCF7. Put plainly: Downregulation of Akt1 mRNA expression in human MCF7 cells at 2 uM after 48 hrs by qRT-PCR analysis. The assay is classed as functional, cell-based.
The test system of assay [10] is MCF7. Put plainly: Downregulation of PI3K mRNA expression in human MCF7 cells at 2 uM after 48 hrs by qRT-PCR analysis. The assay is classed as functional, cell-based.
The subject of assay [11] is MCF7. Put plainly: Cell cycle arrest in human MCF7 cells assessed as accumulation at G0/G1 phase at 2 uM after 48 hrs by flow cytometric analysis (reference value: 34.2%). The assay is classed as functional.
For assay [12], the system named is MCF7. In words: Upregulation of PTEN protein expression in human MCF7 cells at 2 uM after 24 hrs by Western blot analysis. The assay is classed as functional, cell-based.
The subject of assay [13] is MCF7. In words: Cell cycle arrest in human MCF7 cells assessed as accumulation at S phase at 2 uM after 48 hrs by flow cytometric analysis (reference value: 57.7%). The format is functional.
The subject of assay [14] is MCF7. In words: Induction of apoptosis in human MCF7 cells assessed as early apoptotic cells at 2 uM after 24 hrs by Annexin-V FITC/propidium iodide staining-based FACS analysis (reference value: 0.5%). The assay is classed as functional.
Assay [15] has as its system MCF7. Put plainly: Induction of intrinsic apoptosis in human MCF7 cells assessed as effect on mitochondrial membrane depolarization at 2 uM after 5 hrs by DiOC6 staining-based FACS analysis relative to control. The assay is classed as functional.
For assay [16], the system named is MCF7. Put plainly: Upregulation of TP53 mRNA expression in human MCF7 cells at 2 uM after 48 hrs by qRT-PCR analysis. The assay is classed as functional, cell-based.
In assay [17] the test system is MCF7. Put plainly: Downregulation of Akt protein expression in human MCF7 cells at 2 uM after 48 hrs by Alexa/DAPI staining-based immunofluorescence analysis. The format is functional, cell-based.
The subject of assay [18] is MCF7. In words: Induction of apoptosis in human MCF7 cells assessed as viable cells at 2 uM after 24 hrs by Annexin-V FITC/propidium iodide staining-based FACS analysis (reference value: 93.9%). The format is functional. The following applies: MCF7, 24 h, read-out: Activity.
Assay [19] has as its system MCF7. In words: Cell cycle arrest in human MCF7 cells assessed as accumulation at G2/M phase at 2 uM after 24 hrs by flow cytometric analysis (reference value: 2.35%). The format is functional.
Assay [20] has as its system MCF7. Put plainly: Cell cycle arrest in human MCF7 cells assessed as accumulation at S phase at 2 uM after 24 hrs by flow cytometric analysis (reference value: 79.1%). The assay is classed as functional.

`COc1cc(C(=O)/C=C/c2cc(-c3ccc4c(c3)OCO4)n[nH]2)cc(OC)c1OC`: the outcome in the assay on MCF7 [1], in the assay on MCF7 [3], in the assay on MCF7 [4], in the assay on MCF7 [6], in the assay on MCF7 [9] and in the assay on MCF7 [10] was Active. Also, the result with MCF7 [12], with MCF7 [16] and with MCF7 [17] was Active. In addition, in the assay with MCF7 [2], the “Activity call (increase in GSK-3beta Ser9 phosphorylation)” value was “Active”. Also, the Activity in the assay on MCF7 [5] worked out at 0.1%; with MCF7 [7], 1.98%; in the assay on MCF7 [8], 26%; in the assay with MCF7 [11], 39%; in the assay with MCF7 [13], 59.1%; in the assay on MCF7 [14], 0.7%. Further, the Activity in the assay on MCF7 [15] is given as 3.4%; in the assay with MCF7 [19] it was 64.6%; in the assay on MCF7 [20] it was 0%. The viability at 2 µM with MCF7 [18] came to 89.2%.

Consider `COc1ccc(C(=O)/C=C/c2cc(-c3cc(OC)c(OC)c(OC)c3)n[nH]2)cc1`, for which the outcome with MCF7 [1], in the assay with MCF7 [3], in the assay with MCF7 [4], in the assay on MCF7 [6], in the assay on MCF7 [9] and in the assay with MCF7 [10] was Active. Further, the result with MCF7 [12], with MCF7 [16] and in the assay with MCF7 [17] was Active. The “Activity call (increase in GSK-3beta Ser9 phosphorylation)” value in the assay with MCF7 [2] is “Active”.

For the compound `COc1ccc(-c2cc(/C=C/C(=O)c3ccc(OC)c(OC)c3)[nH]n2)cc1`, the result in the assay with MCF7 [1], in the assay with MCF7 [3], in the assay on MCF7 [4], in the assay on MCF7 [6], in the assay on MCF7 [9] and in the assay with MCF7 [10] was Active. Also, the result in the assay on MCF7 [12], with MCF7 [16] and in the assay with MCF7 [17] was Active. Further, the “Activity call (increase in GSK-3beta Ser9 phosphorylation)” value with MCF7 [2] is “Active”. Also, the Activity stood at 0.7% in the assay with MCF7 [5]; 16.5% in the assay on MCF7 [7]; 26% with MCF7 [8]; 44.6% in the assay on MCF7 [11]; 38.9% in the assay with MCF7 [13]; 1.1% in the assay with MCF7 [14]. Further, the Activity in the assay with MCF7 [19] is on record as 18.6%; in the assay on MCF7 [20], 66.1%. Further, the viability at 2 µM in the assay with MCF7 [18] was 93.8%.

Regarding `COc1cc(C(=O)/C=C/c2cc(-c3cc(OC)c(OC)c(OC)c3)n[nH]2)cc(OC)c1OC`, the outcome with MCF7 [1], in the assay on MCF7 [3], in the assay with MCF7 [4], in the assay with MCF7 [6], in the assay with MCF7 [9] and in the assay with MCF7 [10] was Active. The outcome in the assay with MCF7 [12], in the assay with MCF7 [16] and with MCF7 [17] was Active. The “Activity call (increase in GSK-3beta Ser9 phosphorylation)” value in the assay on MCF7 [2] is “Active”. Moreover, the Activity in the assay on MCF7 [5] was 1.1%; in the assay on MCF7 [7], 4.96%; in the assay with MCF7 [8], 1%; in the assay with MCF7 [11] it was 62%; in the assay with MCF7 [13], 33%; in the assay on MCF7 [14] it was 3.1%. The results for the Activity in the assay on MCF7 [19] and with MCF7 [20] were 10.3% and 73.1%, respectively. In addition, the viability at 2 µM in the assay on MCF7 [18] was determined as 84.6%.

Take `COc1ccc(C(=O)/C=C/c2cc(-c3cc(OC)c(OC)c(OC)c3)n[nH]2)cc1OC`: the outcome in the assay with MCF7 [1], in the assay on MCF7 [3], in the assay on MCF7 [4], with MCF7 [6], in the assay on MCF7 [9] and with MCF7 [10] was Active. The outcome in the assay with MCF7 [12], in the assay with MCF7 [16] and with MCF7 [17] was Active. In the assay with MCF7 [2], the “Activity call (increase in GSK-3beta Ser9 phosphorylation)” value is “Active”. The Activity in the assay on MCF7 [5] is 0.1%; with MCF7 [7], 13.1%; in the assay with MCF7 [8] it was 42%; with MCF7 [11], 43.9%; with MCF7 [13], 43%; with MCF7 [14], 1.4%. Besides, the figures for the Activity in the assay with MCF7 [19] and in the assay with MCF7 [20] were 39.9% and 29.3%, respectively. Further, the viability at 2 µM in the assay with MCF7 [18] came out at 94.3%.
